Converted amounts (≈) assume the structure as drawn. Read-outs that look alike come from different tables or passages of the source.
Experiments:
Assay type in all cases: cell-based
[1] = tested on: Enterococcus faecalis (EFA); assay: MIC, two-fold agar dilution (CLSI), clinical isolates
Method in brief: (§1)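 Susceptibility was tested using CLSI two-fold agar dilution against the strains examined.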

[2] = tested on: Enterococcus faecium (EFM); assay: as above
Method in brief: as §1

[3] = tested on: Escherichia coli (including ESBLs, non-ESBLs); assay: as above
Method in brief: as §1

[4] = tested on: Moraxella catarrhalis (BCA); assay: as above
Method in brief: as §1

[5] = tested on: Streptococcus pneoumoniae (SPN); assay: as above
Method in brief: as §1

[6] = tested on: methicillin-resistant Staphylococcus aureus (MRSA); assay: as above
Method in brief: as §1

[7] = tested on: methicillin-resistant Staphylococcus epidermidis (MRSE); assay: as above
Method in brief: as §1

[8] = tested on: methicillin-sensitive Staphylococcus aureus (MSSA); assay: as above
Method in brief: as §1

[9] = tested on: methicillin-sensitive Staphylococcus epidermidis (MSSE); assay: as above
Method in brief: as §1

[10] = tested on: HCT-116 colorectal cancer cell line; assay: CCK-8 proliferation inhibition; conditions: Homo sapiens, HCT-116, 72 h, concentration of 30 μM, 72 hours, CCK-8
Method in brief: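 HCT-116 cells, seeded at 2000 cells/well in McCoy's 5A with 10% newborn bovine serum, were cultured overnight at 37° C., 5% CO2, then exposed to compound dilutions in medium for 72 hours. Viability was read with 1:10 diluted CCK-8; controls received 1‰ DMSO.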

[11] = tested on: A549 lung cancer cell line; assay: CCK-8 proliferation inhibition; conditions: Homo sapiens, A549, 72 h, concentration of 30 μM
Method in brief: (§2)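 Plating at 2000 cells/well, then incubation overnight at 37° C. Next, a range of compound concentrations for 72 hours (control 1‰ DMSO). Finally, medium decanted and CCK-8 diluted 1:10 added.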

[12] = tested on: BEL-7402 liver cancer cell line; assay: CCK-8 proliferation inhibition; conditions: concentration of 30 μM
Method in brief: as §2

[13] = tested on: MGC-803 gastric cancer cell line; assay: CCK-8 proliferation inhibition; conditions: Homo sapiens, MGC-803, 72 h, concentration of 30 μM
Method in brief: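 Cells were seeded at 2000 cells/well and cultured overnight at 37° C, 5% CO2, then exposed for 72 hours to compounds diluted from DMSO stocks. Controls received 1‰ DMSO. CCK-8 (1:10 diluted) replaced the medium. MGC-803 and Jurkat were grown in 1640, PC3 in F12, and MCF-7 in DMEM high glucose, each with 10% newborn bovine serum.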

COC(=O)c1sccc1NC(=O)[C@@H]1CC2(CC2)CN1C(=O)[C@H](CC1CCCC1)CN(O)C=O [Example 34]
MIC (anti-bacterial activity) ([1]; strain EFA 15-1): 4 µg/mL (≈ 8.38 µM)
MIC (anti-bacterial activity) ([1]; strain EFA 15-2): 4 µg/mL (≈ 8.38 µM)
MIC (anti-bacterial activity) ([1]; strain EFA 15-3): 2 µg/mL (≈ 4.19 µM)
MIC (anti-bacterial activity) ([1]; strain EFA 15-4): 4 µg/mL (≈ 8.38 µM)
MIC (anti-bacterial activity) ([1]; strain EFA 15-5): 4 µg/mL (≈ 8.38 µM)
MIC (anti-bacterial activity) ([1]; strain EFA 15-6): 4 µg/mL (≈ 8.38 µM)
MIC (anti-bacterial activity) ([1]; strain EFA 15-9): 4 µg/mL (≈ 8.38 µM)
MIC (anti-bacterial activity) ([2]; strain EFM 15-1): 2 µg/mL (≈ 4.19 µM)
MIC (anti-bacterial activity) ([2]; strain EFM 15-2): 2 µg/mL (≈ 4.19 µM)
MIC (anti-bacterial activity) ([2]; strain EFM 15-3): 0.25 µg/mL (≈ 0.523 µM)
MIC (anti-bacterial activity) ([2]; strain EFM 15-4): 4 µg/mL (≈ 8.38 µM)
MIC (anti-bacterial activity) ([2]; strain EFM 15-5): 4 µg/mL (≈ 8.38 µM)
MIC (anti-bacterial activity) ([2]; strain EFM 15-6): 4 µg/mL (≈ 8.38 µM)
MIC (anti-bacterial activity) ([3]; strain ECO+ 15-1): 128 µg/mL (≈ 268 µM)
MIC (anti-bacterial activity) ([3]; strain ECO+ 15-2): 128 µg/mL (≈ 268 µM)
MIC (anti-bacterial activity) ([3]; strain ECO+ 15-3): 128 µg/mL (≈ 268 µM)
MIC (anti-bacterial activity) ([3]; strain ECO+ 15-4): 128 µg/mL (≈ 268 µM)
MIC (anti-bacterial activity) ([3]; strain ECO− 15-1): 128 µg/mL (≈ 268 µM)
MIC (anti-bacterial activity) ([3]; strain ECO− 15-2): 128 µg/mL (≈ 268 µM)
MIC (anti-bacterial activity) ([3]; strain ECO− 15-3): 128 µg/mL (≈ 268 µM)
MIC (anti-bacterial activity) ([3]; strain ECO− 15-4): 128 µg/mL (≈ 268 µM)
Anti-bacterial activity (MIC), strain BCA 14-10 ([4]; clinical isolate BCA 14-10): 2 µg/mL
MIC (anti-bacterial activity) ([4]; strain BCA 14-1): 4 µg/mL (≈ 8.38 µM)
MIC (anti-bacterial activity) ([4]; strain BCA 14-4): 4 µg/mL (≈ 8.38 µM)
MIC (anti-bacterial activity) ([4]; strain BCA 14-5): 1 µg/mL (≈ 2.09 µM)
MIC (anti-bacterial activity) ([4]; strain BCA 14-6): 4 µg/mL (≈ 8.38 µM)
MIC (anti-bacterial activity) ([4]; strain BCA 14-7): 2 µg/mL (≈ 4.19 µM)
MIC (anti-bacterial activity) ([4]; strain BCA 14-8): 2 µg/mL (≈ 4.19 µM)
MIC (anti-bacterial activity) ([5]; strain SPN 16-2): 0.125 µg/mL (≈ 0.262 µM)
MIC (anti-bacterial activity) ([5]; strain SPN 16-4): 4 µg/mL (≈ 8.38 µM)
MIC (anti-bacterial activity) ([6]; strain MRSA 15-1): 1 µg/mL (≈ 2.09 µM)
MIC (anti-bacterial activity) ([6]; strain MRSA 15-2): 1 µg/mL (≈ 2.09 µM)
MIC (anti-bacterial activity) ([6]; strain MRSA 15-3): 1 µg/mL (≈ 2.09 µM)
MIC (anti-bacterial activity) ([6]; strain MRSA 15-4): 0.5 µg/mL (≈ 1.05 µM)
MIC (anti-bacterial activity) ([7]; strain MRSE 15-1): 0.25 µg/mL (≈ 0.523 µM)
MIC (anti-bacterial activity) ([7]; strain MRSE 15-2): 4 µg/mL (≈ 8.38 µM)
MIC (anti-bacterial activity) ([7]; strain MRSE 15-3): 4 µg/mL (≈ 8.38 µM)
MIC (anti-bacterial activity) ([7]; strain MRSE 15-7): 4 µg/mL (≈ 8.38 µM)
MIC (anti-bacterial activity) ([8]; strain MSSA 15-3): 1 µg/mL (≈ 2.09 µM)
MIC (anti-bacterial activity) ([8]; strain MSSA 15-4): 1 µg/mL (≈ 2.09 µM)
MIC (anti-bacterial activity) ([8]; strain MSSA 15-5): 1 µg/mL (≈ 2.09 µM)
MIC (anti-bacterial activity) ([8]; strain MSSA 15-6): 1 µg/mL (≈ 2.09 µM)
MIC (anti-bacterial activity) ([9]; strain MSSE 15-3): 4 µg/mL (≈ 8.38 µM)
MIC (anti-bacterial activity) ([9]; strain MSSE 15-4): 4 µg/mL (≈ 8.38 µM)
MIC (anti-bacterial activity) ([9]; strain MSSE 15-5): 4 µg/mL (≈ 8.38 µM)
MIC (anti-bacterial activity) ([9]; strain MSSE 15-6): 1 µg/mL (≈ 2.09 µM)
inhibition at 30 µM ([10]; Table 5, read-out: Inhibition of proliferation, Colorectal cancer HCT116): ≥ 30%
inhibition at 30 µM ([10]; read-out: HCT116 inhibition rate/%): 36%
inhibition at 30 µM [11]: 35%
inhibition at 30 µM ([12]; Homo sapiens, Bel-7402, 72 h): > 50%
Inhibition of proliferation, Liver cancer BEL-7402 ([12]; 72 hours, 30 µM): 63%
inhibition at 30 µM [13]: 26%
